Tested on: INS-1 cells
Assay: Cell counting analysis (trypan blue) of living INS-1 cells
Format: cell-based, rat
Details: for decrease in INS-1 cell survival compared to the control: FIG. 4; for decrease in survival of INS-1 cells compared to control: treated alone
Description: The rat insulin-secreting cell line INS-1 was maintained in RPMI-1640 medium containing 10% heat-inactivated FBS (fetal bovine serum), 100 units/ml of penicillin and 100 μg/ml of streptomycin at 37° C. under the conditions of 95% humidity and 5% CO2.
One day before treatment with reagent or CLCE, INS-1 cells were cultured in a 24-well plate at a concentration of 1×10^5 cells/well in a volume of 500 μL. The INS-1 cells were treated with the indicated concentrations of reagent (Dex, LY294002, IL-1β, STZ, TG or TN) and/or CLCE for the indicated time. At each point of time, the cells were stained with trypan blue dye, and the living INS-1 cells were counted under a microscope. The cell counting was repeated three times. Data were expressed as the mean of three independent experiments.

Compound	decrease in INS-1 cell survival compared to the control (treated alone for 24 hours)	decrease in survival of INS-1 cells compared to control (FIG. 3)	further results
CN(N=O)C(=O)N[C@H]1C(O)O[C@H](CO)[C@@H](O)[C@@H]1O (mixture of isomers) [STZ, streptozotocin]	~82%	–	–
C[C@@H]1C[C@H]2[C@@H]3CCC4=CC(=O)C=C[C@]4(C)[C@@]3(F)[C@@H](O)C[C@]2(C)[C@@]1(O)C(=O)CO [Dex, dexamethasone]	–	about 55%	decrease in survival rate of INS-1 cells (treated alone for 24 hours, FIG. 1A): about 50%
O=c1cc(N2CCOCC2)oc2c(-c3ccccc3)cccc12 [LY294002]	–	about 24%	degree of the decrease in survival of INS-1 cells (combination of Dex and LY294002, FIG. 3): 75%
C/C=C(/C)C(=O)O[C@H]1C(C)=C2[C@H]([C@@H]1OC(=O)CCCCCCC)[C@@](C)(OC(C)=O)C[C@H](OC(=O)CCC)[C@@]1(O)[C@H]2OC(=O)[C@@]1(C)O [TG, thapsigargin]	~88%	–	–
interleukin-1β [IL-1β]	about 45%	–	–
tunicamycin [TN]	~50%	–	–

Source: US20140193455A1, “PHARMACEUTICAL COMPOSITION FOR PREVENTION OR TREATMENT OF STEROID-INDUCED DIABETES AND HEALTH FUNCTIONAL FOOD” (priority 2013, published 2014)
